Test results: ChEMBL document CHEMBL2176945, “Novel TEMPO-PEG-RGDs conjugates remediate tissue damage induced by acute limb ischemia/reperfusion” (2012)
The source made the active and inactive calls. No cut-off for these calls is given here. Residues, ends and D or L forms follow the SMILES beside them. *: point of attachment. X1 = CC1(C)CC(C(=O)*)CC(C)(C)N1[O]

How the values were obtained:
Aorta = test: Antioxidant activity in rat thoracic aortic strips assessed as free radical scavenging activity by measuring reversal of acetylcholine-induced relaxation; assay type: functional, tissue-based
Rattus norvegicus [1] = test: Antithrombotic activity in Wistar rat model assessed as reduction of wet thrombus weight at 5 umol/kg after 15 mins; assay type: functional
Platelet [2] = test: Antiplatelet activity against ADP-induced platelet aggregation in rabbit plasma at 100 nM for 120 mins by aggregometeric analysis; assay type: functional; conditions: Oryctolagus cuniculus
Platelet [3] = test: Antiplatelet activity against PAF-induced platelet aggregation in rabbit plasma at 100 nM for 120 mins by aggregometeric analysis; assay type: functional; conditions: Oryctolagus cuniculus
Rattus norvegicus [4] = test: Antithrombotic activity in Wistar rat model assessed as reduction of dry thrombus weight at 5 umol/kg after 15 mins; assay type: functional, organism-based
Rattus norvegicus [5] = test: (§1) Antiischemic activity in Wistar rat myocardia assessed as protection against ischemic-reperfusion-induced pyknotic nuclei at 20 mg/kg, ip administered 15 minutes prior to induction of ischemia followed by administered 1 hr post reperfusion by using hematoxylin-eosin stain by light microscopy analysis; assay type: functional, organism-based; parameters: dose 20 mg/kg
Rattus norvegicus [6] = test: as §1, with “skeleton muscle” for “myocardia”, “ragged red fibrils formation” for “pyknotic nuclei”, “modified NADH” for “hematoxylin-eosin”, “Light” for “light”; assay type: functional, organism-based; parameters: dose 20 mg/kg; conditions: Muscle tissue
Rattus norvegicus [7] = test: as §1, with “relaxed collagen fibre sourrounding indivisual myocardial tract” for “pyknotic nuclei”, “modified gomori trichome” for “hematoxylin-eosin”; assay type: functional, organism-based; parameters: dose 20 mg/kg
Rattus norvegicus [8] = test: as §1, with “tightly woven network of collagen and mild edema between fibre” for “pyknotic nuclei”, “modified gomori trichome staining” for “hematoxylin-eosin stain”; assay type: functional, organism-based; parameters: dose 20 mg/kg
Rattus norvegicus [9] = test: Antiischemic activity against Wistar rat ischemic-reperfusion model assessed decrease in lipid peroxidation at 20 mg/kg, ip administered 15 minutes prior to induction of ischemia followed by administered 1 hr post reperfusion; assay type: functional, organism-based; parameters: dose 20 mg/kg
Rattus norvegicus [10] = test: as §1, with “edema between wavy muscle fibre and surrounding blood vessels” for “pyknotic nuclei”; assay type: functional, organism-based; parameters: dose 20 mg/kg
Rattus norvegicus [11] = test: as §1, with “skeleton muscle” for “myocardia”, “cell necrosis” for “pyknotic nuclei”, “staining” for “stain”; assay type: functional, organism-based; parameters: dose 20 mg/kg; conditions: Muscle tissue
Rattus norvegicus [12] = test: as §1, with “skeleton muscle” for “myocardia”, “irregular distribution of oxidative metabolism enzyme” for “pyknotic nuclei”, “NADH staining” for “hematoxylin-eosin stain”; assay type: functional, organism-based; parameters: dose 20 mg/kg; conditions: Muscle tissue
Rattus norvegicus [13] = test: as §1, with “contraction band” for “pyknotic nuclei”; assay type: functional, organism-based; parameters: dose 20 mg/kg
Rattus norvegicus [14] = test: as §1, with “skeleton muscle” for “myocardia”, “membrane ruptures with dissolution of myofibrils” for “pyknotic nuclei”, “Gomori trichrome staining” for “hematoxylin-eosin stain”; assay type: functional, organism-based; parameters: dose 20 mg/kg; conditions: Muscle tissue
Rattus norvegicus [15] = test: Antiischemic activity against Wistar rat ischemic-reperfusion model assessed decrease in MDA level in plasma at 20 mg/kg, ip administered 15 minutes prior to induction of ischemia followed by administered 1 hr post reperfusion; assay type: functional, organism-based; parameters: dose 20 mg/kg
Rattus norvegicus [16] = test: as §1, with “skeleton muscle” for “myocardia”, “necrotic and swollen cells” for “pyknotic nuclei”, “Gomori trichrome staining” for “hematoxylin-eosin stain”; assay type: functional, organism-based; parameters: dose 20 mg/kg; conditions: Muscle tissue
Rattus norvegicus [17] = test: as §1, with “skeleton muscle” for “myocardia”, “neutrophil accumulation” for “pyknotic nuclei”, “staining” for “stain”; assay type: functional, organism-based; parameters: dose 20 mg/kg; conditions: Muscle tissue
Rattus norvegicus [18] = test: as §1, with “skeleton muscle” for “myocardia”, “muscle edema” for “pyknotic nuclei”, “staining” for “stain”; assay type: functional, organism-based; parameters: dose 20 mg/kg; conditions: Muscle tissue
Rattus norvegicus [19] = test: as §1, with “skeleton muscle” for “myocardia”, “interstitial edema” for “pyknotic nuclei”, “Gomori trichrome staining” for “hematoxylin-eosin stain”; assay type: functional, organism-based; parameters: dose 20 mg/kg; conditions: Muscle tissue
Rattus norvegicus [20] = test: as §1, with “tightly woven network of collagen and mild edema” for “pyknotic nuclei”, “Light” for “light”; assay type: functional, organism-based; parameters: dose 20 mg/kg
Rattus norvegicus [21] = test: as §1, with “tightly woven network of collagen and mild edema between fibre” for “pyknotic nuclei”, “modified NADH” for “hematoxylin-eosin”; assay type: functional, organism-based; parameters: dose 20 mg/kg
Rattus norvegicus [22] = test: Antiischemic activity against Wistar rat ischemic-reperfusion model assessed decrease in SOD level in plasma at 20 mg/kg, ip administered 15 minutes prior to induction of ischemia followed by administered 1 hr post reperfusion; assay type: functional, organism-based; parameters: dose 20 mg/kg
Rattus norvegicus [23] = test: Antiischemic activity against Wistar rat ischemic-reperfusion model assessed as wet/dry edema tissue ratio at 20 mg/kg, ip administered 15 minutes prior to induction of ischemia followed by administered 1 hr post reperfusion; assay type: functional

Structure (SMILES)	Activity (Aorta)	Wet thrombus weight (Rattus norvegicus [1])	Activity (Platelet [2])	Activity (Platelet [3])	Activity (Rattus norvegicus [4])	also measured
CC1(C)CC(C(=O)NCCOCCOCCOCCOCCOCCOCCOCCNC(=O)COCC(=O)N[C@@H](CCCNC(=N)N)C(=O)NCC(=O)N[C@@H](CC(=O)O)C(=O)N[C@@H](CO)C(=O)O)CC(C)(C)N1[O]	Active	23.6 mg	Active	Active		
CC1(C)CC(C(=O)N[C@@H](CCCNC(=N)N)C(=O)NCC(=O)N[C@@H](CC(=O)O)C(=O)N[C@@H](Cc2ccccc2)C(=O)O)CC(C)(C)N1[O] (X1-RGDF-OH)	Active		Active	Active	22.3 mg	
CC1(C)CC(C(=O)NCCOCCOCCOCCOCCOCCOCCOCCNC(=O)COCC(=O)N[C@@H](CCCNC(=N)N)C(=O)NCC(=O)N[C@@H](CC(=O)O)C(=O)N[C@@H](Cc2ccccc2)C(=O)O)CC(C)(C)N1[O]	Active	20.7 mg	Active	Active		Activity (Rattus norvegicus [5]): Active; Activity (Rattus norvegicus [6]): Active; Activity (Rattus norvegicus [7]): Active; Activity (Rattus norvegicus [8]): Active; Activity (Rattus norvegicus [9]): Active; Activity (Rattus norvegicus [10]): Active; Activity (Rattus norvegicus [11]): Active; Activity (Rattus norvegicus [12]): Active; Activity (Rattus norvegicus [13]): Active; Activity (Rattus norvegicus [14]): Active; Activity (Rattus norvegicus [15]): Active; Activity (Rattus norvegicus [16]): Active; Activity (Rattus norvegicus [17]): Active; Activity (Rattus norvegicus [18]): Active; Activity (Rattus norvegicus [19]): Active; Activity (Rattus norvegicus [20]): Active; Activity (Rattus norvegicus [21]): Active; Activity (Rattus norvegicus [22]): Active; Ratio (Rattus norvegicus [23]): 3.45
CC1(C)CC(O)CC(C)(C)N1[O] [TEMPOL]	Active					Ratio (Rattus norvegicus [23]; route intraperitoneal): 4.49
CC(C)[C@H](NC(=O)[C@H](CC(=O)O)NC(=O)CNC(=O)[C@H](CCCNC(=N)N)NC(=O)COCC(=O)NCCOCCOCCOCCOCCOCCOCCOCCNC(=O)C1CC(C)(C)N([O])C(C)(C)C1)C(=O)O	Active	24.7 mg	Active	Active		
CC(C)[C@H](NC(=O)[C@H](CC(=O)O)NC(=O)CNC(=O)[C@H](CCCNC(=N)N)NC(=O)C1CC(C)(C)N([O])C(C)(C)C1)C(=O)O (X1-RGDV-OH)	Active		Active	Active	25.1 mg	
CC(=O)Oc1ccccc1C(=O)O [ASPIRIN]						Activity (Rattus norvegicus [1]): 27.6 mg
CC1(C)CC(C(=O)N[C@@H](CCCNC(=N)N)C(=O)NCC(=O)N[C@@H](CC(=O)O)C(=O)N[C@@H](CO)C(=O)O)CC(C)(C)N1[O] (X1-RGDS-OH)	Active		Active	Active	25.9 mg	
